Nine compounds from PubChem BioAssay (NCI) can be followed below.

Each structure is given as a SMILES string.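 Step 1: Grow cells in 96-well plates. Step 2: Expose to compound for 48 hours at 5 concentrations. Step 3: Interpolate endpoints linearly; if unreached, use highest concentration. Here, GI50 denotes the concentration required for 50% inhibition of growth. The concentration for full growth arrest is given as TGI.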

Assay in all cases: NCI tumour cell line growth inhibition, 48 h
Test [1] has as its system MDA-MB-231 breast.
For test [2], the system named is LOX IMVI melanoma.
Test [3] relates to NCI-H460 lung.
Test [4] relates to RPMI-8226 leukemia.
Test [5] relates to UACC-257 melanoma.
The subject of test [6] is HS 578T breast.
Test [7] deals with ACHN renal.
Test [8] deals with HCT-15 colon.
Test [9] has as its system MDA-MB-435.
Test [10] concerns HOP-62 NSCLC.

Turning to `O=C(O)CN1C(=O)OC(c2ccccc2)C1=O` (configuration not stated), the TGI in test [1], in [2], in test [3], in test [4], in test [5] and in test [6] was greater than 100 µM in each case. Also, the TGI in test [7], in test [8], in test [9] and in test [10] was greater than 100 µM each time.
Regarding `C=C(C)COc1ccc2c(c1)CCC1C2CCC2(C)C(=O)/C(=N/O)CC12` (configuration not stated), the TGI was found to be 4.93 µM in test [1]; 13.9 µM in test [2]; 3.14 µM in [3]; 7.54 µM in [4]; 23.5 µM in test [5]; 27.7 µM in test [6]. Further, the TGI in [7] came out at 15.2 µM; in test [8], 7.52 µM; in test [9] it was 7.61 µM; in test [10], 21.2 µM.
For the compound `CCOC(=O)C#Cc1cccc(C#CC(=O)OCC)c1`, the TGI in test [1] was 11.2 µM; in test [2], 5.83 µM; in test [3] it was 39.2 µM; in test [4], 13 µM; in test [5], 24.2 µM; in [6] it was greater than 30.3 µM. Further, the TGI came to 11.6 µM in test [7], 16.1 µM in test [8], 9.52 µM in test [9] and 11.6 µM in test [10].
`COc1ccc(C2=C(c3ccccc3)C(=O)N3CCCC3C2)cc1` (configuration not stated): the GI50 in [1] is greater than 36.1 µM; in test [2] it was 0.115 µM; in [4] it was 0.318 µM; in test [5], greater than 49 µM; in test [6], greater than 100 µM; in test [7], 2.39 µM. Besides, the results for the GI50 in test [8], in [9] and in test [10] were less than 0.0249 µM, 5.32 µM and 39.8 µM, respectively. The TGI was greater than 100 µM in test [1]; greater than 100 µM in [2]; greater than 62.9 µM in test [3]; greater than 100 µM in [4]; greater than 100 µM in [5]; greater than 100 µM in test [6]. Further, the TGI in test [7], in test [8], in [9] and in test [10] was greater than 100 µM in each case.
Consider `CC(C)(C)N1CC1CNC(=O)C(=O)NCC1CN1C(C)(C)C` (configuration not stated), for which the TGI in test [1] was greater than 100 µM; in test [2], greater than 54.1 µM; in test [3], 24.7 µM; in test [4], greater than 18.3 µM; in test [5], 11.1 µM; in [6] it was greater than 100 µM. The TGI in [7] was 13.7 µM; in test [8], 10.5 µM; in test [9] it was greater than 100 µM; in test [10], 3.68 µM.
For `Cn1cc(-c2csc(-c3ccccc3)n2)c2cccnc21`, the GI50 in [1] is 13.5 µM; in [2], 12.8 µM; in test [3], 16 µM; in test [4], 14.3 µM; in [5], 21.1 µM; in test [6] it was 11.8 µM. Further, the GI50 in test [7] is 17.1 µM; in [8], 12.8 µM; in test [9], 11.2 µM; in [10] it was 15.5 µM. The TGI in [1] amounted to 30.8 µM; in test [2] it was 25.4 µM; in test [3], 31 µM; in test [4] it was 98 µM; in test [5] it was 44.4 µM; in test [6], 35.5 µM. For the same compound, the TGI came out at 52.3 µM in test [7], 31.7 µM in test [8], 26.5 µM in test [9] and 29.5 µM in test [10].
For the compound `Nc1nc2ccc(CNc3ccc(C(=O)NC(CC(=O)O)C(=O)O)cc3)cc2c(=O)[nH]1` (configuration not stated), the GI50 was greater than 100 µM in [1]; 0.472 µM in [2]; 0.593 µM in test [3]; 9.23 µM in test [4]; greater than 100 µM in test [5]; greater than 64.2 µM in test [6]. For the same compound, the results for the GI50 in test [7], in test [8] and in test [9] were 3.6 µM, 0.757 µM and 0.514 µM, respectively. In addition, the TGI in test [1], in test [2], in test [3], in [4], in test [5] and in [6] was greater than 100 µM in each case. Besides, the TGI in [7], in test [8], in [9] and in test [10] was greater than 100 µM throughout.
As to `CCN1C(=O)/C(=c2\sc3n(c2=O)C2C(NN=3)N(CC)C(=O)N2CC)c2ccccc21` (configuration not stated), the GI50 in [1] is 1.44 µM; in test [2] it was 0.666 µM; in test [3], 0.402 µM; in test [4] it was 0.366 µM; in [5], 22.4 µM; in test [6], 0.341 µM. For the same compound, the GI50 was 0.726 µM in [7], 0.394 µM in test [8], 0.199 µM in test [9] and 0.786 µM in [10]. The TGI in test [1] is 19.3 µM; in test [2] it was 26.6 µM; in [3], greater than 100 µM; in test [5] it was greater than 100 µM; in [6] it was 31.6 µM; in [7], greater than 47.9 µM. Moreover, the TGI was greater than 100 µM in [8], 0.449 µM in [9] and greater than 42.6 µM in [10].
Turning to `COc1cccc2nc(Nc3cccc(NC(=O)c4ccc(N5CCN(C)CC5)c(C(F)(F)F)c4)c3)ccc12`, the GI50 is 1.55 µM in test [1]; 0.874 µM in test [2]; 0.964 µM in test [3]; 1.65 µM in test [4]; 1.36 µM in test [5]; 1.07 µM in [6]. The GI50 in test [7] was 1.53 µM; in test [8], 0.937 µM; in [9], 0.878 µM; in test [10] it was 0.856 µM. For the same compound, the TGI in test [1] came out at 5.88 µM; in test [2], 1.57 µM; in test [3] it was 1.98 µM; in [4], 6.44 µM; in test [5], 3.51 µM; in test [6], 2.93 µM. For the same compound, the TGI in [7] was found to be 4.57 µM; in test [8], 2.03 µM; in [9] it was 1.73 µM; in test [10], 1.74 µM.
